Consider 32 compounds from patent publication US8895585B2, “Nicotinamide derivative or salt thereof” (FUJIFILM Corporation, priority 2010, dated 2014).

Read-outs that look alike come from different tables or passages of the source.

In one assay the test system is THP-1 cells. Briefly: TNFα generation assay. In kind it is cell-based, human. As to conditions: Table 22, read-out: IC50 in TNFα generation assay. The method in brief:
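THP-1 cells differentiated to macrophage-like cells with 10 ng/ml IFN-γ for 2 days, preincubated with compound 30 min at room temperature, then cultured 7 h on plates coated with human IgG (10 μg/ml). Secreted TNFα measured by ELISA or AlphaLISA.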

In assay [1] the target is T1, glutathione S-transferase (GST)-fused full-length human Syk protein (Homo sapiens, UniProt P43405).
T1 construct: (GST)-fused full-length human Syk protein; GST (glutathione S-transferase); purchased Carna Biosciences
Briefly: Syk enzyme assay. In kind it is biochemical. As to conditions: Syk enzyme assay, Test Example 1; read-out: IC50 of Syk-inhibitory activity. The method in brief: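 IC50 values come from a time-resolved FRET readout (615 and 665 nm) of substrate phosphorylation, measured after an EDTA stop and 1 h antibody binding. The kinase reaction ran 40 min at room temperature with 27 μM ATP and 0.4 μM biotin-peptide, following a 15 min compound preincubation with baculovirus-made GST-full-length human Syk.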

Setting [2] is: Homo sapiens, THP-1, THP-1 cells.

Turning to `CC(C)CC(Nc1nc(Nc2ccc3ncccc3c2)c(C(N)=O)cc1F)[C@H](C)N` (stereo partly drawn) [Example 006-159, 6-(((2S)-2-amino-5-methylhexan-3-yl)amino)-5-fluoro-2-(quinolin-6-ylamino)nicotinamide], the IC50 with THP-1 cells (setting [2]) is 130 to 200 nM; in assay [1] it was less than 10 nM.

With `COCc1cncc(Nc2nc(N[C@@H]3CCCC[C@@H]3N)c(F)cc2C(N)=O)c1` (relative stereo) [Example 004-188, 6-(cis-2-aminocyclohexylamino)-5-fluoro-2-((5-(methoxymethyl)pyridin-3-yl)amino)nicotinamide], the IC50 was 65 to 130 nM in the assay with THP-1 cells (setting [2]) and 10 to 50 nM in assay [1].

As to `NC(=O)c1cc(F)c(N[C@@H]2CCCC[C@@H]2N)nc1Nc1cnc2c(ccn2CCN2CCCC2)c1` [Example 004-022], the IC50 in the assay on THP-1 cells (setting [2]) lay in the range of 65 to 130 nM; in assay [1] it was 10 to 50 nM.

`Cc1cncc(Nc2nc(N[C@H](C)[C@H](C)N)c(F)cc2C(N)=O)c1` [Example 006-108]: the IC50 fell in the range of 65 to 130 nM in the assay with THP-1 cells (THP-1 cells) and 10 to 50 nM in assay [1].

For `CC[C@@H](Nc1nc(Nc2cc(OC)nc(OC)c2)c(C(N)=O)cc1F)[C@H](C)N` [Example 006-267, 6-(((2S,3R)-2-aminopentan-3-yl)amino)-2-((2,6-dimethoxypyridin-4-yl)amino)-5-fluoronicotinamide], the IC50 in the assay with THP-1 cells (setting [2]) was less than 65 nM; in assay [1] it was less than 10 nM.

For `Cn1ncc2cc(Nc3nc(NC[C@@H](N)c4ccccc4)c(F)cc3C(N)=O)ccc21` [Example 006-119, (S)-6-((2-amino-2-phenylethyl)amino)-5-fluoro-2-((1-methyl-1H-indazol-5-yl)amino)nicotinamide], the IC50 in the assay with THP-1 cells (setting [2]) lay within 130 to 200 nM; in assay [1] it was 10 to 50 nM.

For the compound `NC(=O)c1cc(F)c(N[C@@H]2CCCC[C@@H]2N)nc1Nc1cncc(-c2cccnc2)c1` [Example 004-103], the IC50 in the assay on THP-1 cells (setting [2]) was 65 to 130 nM; in assay [1] it was 10 to 50 nM.

Turning to `CCc1nn(C2CC2)c2ccc(Nc3nc(N[C@@H]4CCCC[C@@H]4N)c(F)cc3C(N)=O)cc12` [Example 006-478, 6-(((1R,2S)-2-aminocyclohexyl)amino)-2-((1-cyclopropyl-3-ethyl-1H-indazol-5-yl)amino)-5-fluoronicotinamide], the IC50 in the assay on THP-1 cells (setting [2]) was 65 to 130 nM; in assay [1] it was less than 10 nM.

For `NC(=O)c1cc(F)c(N[C@@H]2CCCC[C@@H]2N)nc1Nc1ccc2cnn(C3CC3)c2c1` [Example 006-473, 6-(((1R,2S)-2-aminocyclohexyl)amino)-2-((1-cyclopropyl-1H-indazol-6-yl)amino)-5-fluoronicotinamide], the IC50 is less than 65 nM in the assay on THP-1 cells (setting [2]) and less than 10 nM in assay [1].

For the compound `CCc1ncc(Nc2nc(N[C@@H]3CCCC[C@@H]3N)c(F)cc2C(N)=O)cc1F` [Example 006-554, 6-(((1R,2S)-2-aminocyclohexyl)amino)-2-((6-ethyl-5-fluoropyridin-3-yl)amino)-5-fluoronicotinamide], the IC50 in the assay on THP-1 cells (setting [2]) fell in the range of 130 to 200 nM; in assay [1], 10 to 50 nM.

For `CC(C)C[C@@H](Nc1nc(Nc2ccc3ncccc3c2)c(C(N)=O)cc1F)C(N)=O` [Example 012-009], the IC50 in the assay on THP-1 cells (setting [2]) was 65 to 130 nM; in assay [1], less than 10 nM.

Turning to `CC(C)Oc1cc(Nc2nc(NC3CCCCC3N)c(F)cc2C(N)=O)ccn1` (stereo not shown) [Example 002-055], the values for the IC50 (in the assay on THP-1 cells (setting [2]); in assay [1]) were 130 to 200 nM and less than 10 nM, respectively.

In the case of `CC[C@H](CN)Nc1nc(Nc2ccc3ncccc3c2)c(C(N)=O)cc1F` [Example 39-2, (R)-6-((1-aminobutan-2-yl)amino)-5-fluoro-2-((quinolin-6-yl)amino)nicotinamide], the IC50 in the assay on THP-1 cells (setting [2]) is less than 65 nM; in assay [1], less than 10 nM.

Consider `C[C@H](N)[C@H](Nc1nc(Nc2ccc3cnn(C)c3c2)c(C(N)=O)cc1F)C1CC1` [Example 006-370, 6-(((1R,2S)-2-amino-1-cyclopropylpropyl)amino)-5-fluoro-2-((1-methyl-1H-indazol-6-yl)amino)nicotinamide], for which the IC50 in the assay with THP-1 cells (setting [2]) is less than 65 nM; in assay [1] it was less than 10 nM.

As for `CCC[C@@H](Nc1nc(Nc2cnc3ccc(OC)cc3c2)c(C(N)=O)cc1F)[C@H](C)N` [Example 006-242, 6-(((2S,3R)-2-aminohexan-3-yl)amino)-5-fluoro-2-((6-methoxyquinolin-3-yl)amino)nicotinamide], the IC50 with THP-1 cells (setting [2]) was 65 to 130 nM; in assay [1] it was less than 10 nM.

For `Cc1nn(C)c2ccc(Nc3nc(N[C@H](CC4CC4)[C@H](C)N)c(F)cc3C(N)=O)cc12` [Example 006-442, 6-(((2R,3S)-3-amino-1-cyclopropylbutan-2-yl)amino)-2-((1,3-dimethyl-1H-indazol-5-yl)amino)-5-fluoronicotinamide], the results for the IC50 (in the assay on THP-1 cells (setting [2]); in assay [1]) were less than 65 nM and less than 10 nM, respectively.

Regarding `COCCOc1ccc2cc(Nc3nc(NC4CCCCC4N)c(F)cc3C(N)=O)ccc2n1` (stereo not shown) [Example 002-097], the IC50 in the assay with THP-1 cells (setting [2]) was 130 to 200 nM; in assay [1], less than 10 nM.

Take `C[C@H](N)CNc1nc(Nc2cnc3ccccc3c2)c(C(N)=O)cc1F` [Example 006-092, (S)-6-((2-aminopropyl)amino)-5-fluoro-2-((quinolin-3-yl)amino)nicotinamide]: the IC50 in the assay on THP-1 cells (setting [2]) was less than 65 nM; in assay [1], less than 10 nM.

For the compound `NC(=O)c1cc(F)c(N[C@@H]2CCCC[C@@H]2N)nc1Nc1ccc2nn(CC3CC3)cc2c1` (relative stereo) [Example 004-093, 6-(cis-2-aminocyclohexylamino)-2-((2-(cyclopropylmethyl)-2H-indazol-5-yl)amino)-5-fluoronicotinamide], the IC50 in the assay on THP-1 cells (setting [2]) is 130 to 200 nM; in assay [1] it was less than 10 nM.

With `COc1ccc(-c2cncc(Nc3nc(NC4CCCCC4N)c(F)cc3C(N)=O)c2)cc1OC` (stereo not shown) [Example 002-170], the results for the IC50 (in the assay on THP-1 cells (setting [2]); in assay [1]) were 65 to 130 nM and 10 to 50 nM, respectively.

For the compound `CCC[C@@H](Nc1nc(Nc2ccc(C)nc2)c(C(N)=O)cc1F)[C@H](C)N` [Example 006-302, 6-(((2S,3R)-2-aminohexan-3-yl)amino)-5-fluoro-2-((6-methylpyridin-3-yl)amino)nicotinamide], the figures for the IC50 (in the assay on THP-1 cells (setting [2]); in assay [1]) were 130 to 200 nM and 10 to 50 nM, respectively.

With `Cc1nn(C)c2ccc(Nc3nc(N[C@H](CC(C)C)[C@H](C)N)c(F)cc3C(N)=O)cc12` [Example 006-520, 6-(((2S,3R)-2-amino-5-methylhexan-3-yl)amino)-2-((1,3-dimethyl-1H-indazol-5-yl)amino)-5-fluoronicotinamide], the IC50 in the assay on THP-1 cells (setting [2]) is less than 65 nM; in assay [1], less than 10 nM.

As for `Cc1cnc2cc(Nc3nc(N[C@@H](CN)CC(C)C)c(F)cc3C(N)=O)ccc2n1` [Example 006-148, (R)-6-((1-amino-4-methylpentan-2-yl)amino)-5-fluoro-2-((2-methylquinoxalin-6-yl)amino)nicotinamide], the values for the IC50 (in the assay with THP-1 cells (setting [2]); in assay [1]) were 130 to 200 nM and less than 10 nM, respectively.

For `NC(=O)c1cc(F)c(NC2CCCCC2N)nc1Nc1ccnc(N2CCCC2=O)c1` (stereo not shown) [Example 002-054], the IC50 with THP-1 cells (setting [2]) lay within 65 to 130 nM; in assay [1], 10 to 50 nM.

In the case of `CNc1cc(Nc2nc(NC3CCCCC3N)c(F)cc2C(N)=O)ccn1` (stereo not shown) [Example 002-058], the figures for the IC50 (with THP-1 cells (setting [2]); in assay [1]) were 65 to 130 nM and less than 10 nM, respectively.

Consider `NC(=O)c1cc(F)c(N[C@@H]2CCCC[C@@H]2N)nc1Nc1cncc(C(=O)Nc2ccccc2)c1` [Example 004-011], for which the values for the IC50 (in the assay on THP-1 cells (setting [2]); in assay [1]) were 130 to 200 nM and 10 to 50 nM, respectively.

Turning to `CCC[C@@H](Nc1nc(Nc2ccnc(-n3ccnn3)c2)c(C(N)=O)cc1F)[C@H](C)N` [Example 006-299, 2-((2-(1H-1,2,3-triazol-1-yl)pyridin-4-yl)amino)-6-(((2S,3R)-2-aminohexan-3-yl)amino)-5-fluoronicotinamide], the IC50 in the assay on THP-1 cells (setting [2]) was less than 65 nM; in assay [1], less than 10 nM.

For `NC(=O)c1cc(F)c(N[C@@H]2CCCC[C@@H]2N)nc1Nc1cnc(-n2cccn2)c(F)c1` [Example 006-447, 6-(((1R,2S)-2-aminocyclohexyl)amino)-5-fluoro-2-((5-fluoro-6-(1H-pyrazol-1-yl)pyridin-3-yl)amino)nicotinamide], the IC50 in the assay on THP-1 cells (setting [2]) was in the range of 130 to 200 nM; in assay [1], 10 to 50 nM.

With `Cc1nn(C2CC2)c2ccc(Nc3nc(N[C@@H]4CCCC[C@@H]4N)c(F)cc3C(N)=O)cc12` [Example 006-477, 6-(((1R,2S)-2-aminocyclohexyl)amino)-2-((1-cyclopropyl-3-methyl-1H-indazol-5-yl)amino)-5-fluoronicotinamide], the IC50 in the assay with THP-1 cells (setting [2]) is 130 to 200 nM; in assay [1] it was less than 10 nM.

Regarding `COCCOc1ncc(Nc2nc(N[C@@H]3CCCC[C@@H]3N)c(F)cc2C(N)=O)cc1C` [Example 006-498, 6-(((1R,2S)-2-aminocyclohexyl)amino)-5-fluoro-2-((6-(2-methoxyethoxy)-5-methylpyridin-3-yl)amino)nicotinamide], the IC50 was 65 to 130 nM with THP-1 cells (setting [2]) and less than 10 nM in assay [1].

As to `COCCOc1ncc(Nc2nc(N[C@@H]3CCCC[C@@H]3N)c(F)cc2C(N)=O)cc1-n1cccn1` [Example 006-575, 6-(((1R,2S)-2-aminocyclohexyl)amino)-2-((6-(2-methoxyethoxy)-5-(1H-pyrazol-1-yl)pyridin-3-yl)amino)-5-fluoronicotinamide], the IC50 lay in the range of 130 to 200 nM with THP-1 cells (setting [2]) and 10 to 50 nM in assay [1].

For `C[C@H](N)[C@@H](C)Nc1nc(Nc2cncc(-c3ccccc3)c2)c(C(N)=O)cc1F` (racemic) [Example 006-195, 6-(((2R,3S)-3-aminobutan-2-yl)amino)-5-fluoro-2-((5-phenylpyridin-3-yl)amino)nicotinamide 6-(((2S,3R)-3-aminobutan-2-yl)amino)-5-fluoro-2-((5-phenylpyridin-3-yl)amino)-nicotinamide], the IC50 in the assay on THP-1 cells (setting [2]) is less than 65 nM; in assay [1], less than 10 nM.
